Some test systems named below: CAKI-1 renal; SK-MEL-28 melanoma; SK-OV-3 ovarian; HT29 colon; HL-60(TB) leukemia; SF-539 CNS; HOP-62 NSCLC; TK-10 renal; HCT-15 colon; IGROV1 ovarian.
Common to all, as to test: NCI anticancer screen, dose series, 48 h

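Five compound concentrations were applied to cells in 96-well plates for 48 hours; endpoints were derived by simple linear interpolation of the resulting dose-response curve. GI50: concentration for 50% inhibition of growth. TGI is the concentration that stops growth completely.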

Regarding `CCC(=C(c1ccc(OCCN(CC)CC)cc1)c1ccc(OCCN(CC)CC)cc1)c1ccc(Cl)cc1`, the GI50 with CAKI-1 renal is 0.515 µM; with SK-MEL-28 melanoma, 0.592 µM; in the experiment on SK-OV-3 ovarian, 0.594 µM; with HT29 colon, 0.51 µM; in the experiment on HL-60(TB) leukemia it was 0.626 µM; with SF-539 CNS, 0.552 µM. Besides, the GI50 is 0.598 µM in the experiment on HOP-62 NSCLC, 0.528 µM in the experiment on TK-10 renal, 0.541 µM with HCT-15 colon and 0.618 µM with IGROV1 ovarian. For the same compound, the TGI is 0.984 µM with CAKI-1 renal; 1.09 µM in the experiment on SK-MEL-28 melanoma; 1.16 µM in the experiment with SK-OV-3 ovarian; 1.15 µM in the experiment on HT29 colon; 1.32 µM in the experiment with HL-60(TB) leukemia; 1.04 µM in the experiment on SF-539 CNS. The TGI was determined as 1.28 µM with HOP-62 NSCLC, 1.1 µM with TK-10 renal, 1.08 µM with HCT-15 colon and 1.15 µM in the experiment on IGROV1 ovarian.

`O=C(O)C12C3C4C1C1C2C3C41I` (stereo not given): the TGI in the experiment on CAKI-1 renal, with SK-MEL-28 melanoma, with SK-OV-3 ovarian, in the experiment on HT29 colon, with HL-60(TB) leukemia and with SF-539 CNS was more than 100 µM throughout. Also, the TGI in the experiment on HOP-62 NSCLC, with TK-10 renal, with HCT-15 colon and in the experiment with IGROV1 ovarian was more than 100 µM each time.

Take `O=C1OC(c2ccccc2)=N/C1=C\c1ccc(N(CCCl)CCCl)cc1`: the TGI in the experiment on CAKI-1 renal, in the experiment with SK-MEL-28 melanoma, in the experiment with SK-OV-3 ovarian, in the experiment on HT29 colon, in the experiment with HL-60(TB) leukemia and with SF-539 CNS was more than 100 µM each time. The TGI with HOP-62 NSCLC, in the experiment on TK-10 renal, in the experiment on HCT-15 colon and with IGROV1 ovarian was more than 100 µM each time.

These data come from PubChem BioAssay (NCI).
